Source: patent US9334285B2, “Aldosterone synthase inhibitors” (Boehringer Ingelheim International GmbH, priority 2014, dated 2016)
Where two headings read alike, the source gives them in different places.

Assays:
[1] = target: T1, CYP19A1 (Homo sapiens, UniProt P11511); assay: Inhibition of CYP19A1 (Kragie et al.); assay type: biochemical
T1 sequence (P11511 1-503): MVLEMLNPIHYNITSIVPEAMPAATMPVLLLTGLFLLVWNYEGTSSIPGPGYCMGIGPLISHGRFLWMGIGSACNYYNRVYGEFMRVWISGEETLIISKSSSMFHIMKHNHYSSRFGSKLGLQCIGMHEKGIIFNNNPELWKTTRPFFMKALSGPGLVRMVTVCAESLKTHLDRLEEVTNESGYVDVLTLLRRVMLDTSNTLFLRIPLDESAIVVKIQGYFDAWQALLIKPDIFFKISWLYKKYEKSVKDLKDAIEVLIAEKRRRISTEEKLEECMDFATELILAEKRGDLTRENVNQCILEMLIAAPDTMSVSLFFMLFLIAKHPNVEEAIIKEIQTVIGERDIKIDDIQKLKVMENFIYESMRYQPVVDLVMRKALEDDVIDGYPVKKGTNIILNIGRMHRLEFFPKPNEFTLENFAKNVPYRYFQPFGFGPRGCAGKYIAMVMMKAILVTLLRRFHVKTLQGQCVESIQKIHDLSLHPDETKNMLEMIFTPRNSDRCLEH

[2] = target: T2, aldosterone synthase (CYP11B2) (Macaca fascicularis, UniProt A0A2K5UPL9); assay: Inhibition of aldosterone synthase, cynomolgus adrenal mitochondria, aldosterone quantified by mass spectrometry; assay type: biochemical, cynomolgus monkey; conditions: 2 μM corticosterone, 90 minutes at 37° C.
T2 construct: employ cynomolgus adrenal gland mitochondria as the source of aldosterone synthase (CYP11B2); from tissue; host or cells: cynomolgus monkey adrenal gland mitochondria
T2 sequence (A0A2K5UPL9 1-503): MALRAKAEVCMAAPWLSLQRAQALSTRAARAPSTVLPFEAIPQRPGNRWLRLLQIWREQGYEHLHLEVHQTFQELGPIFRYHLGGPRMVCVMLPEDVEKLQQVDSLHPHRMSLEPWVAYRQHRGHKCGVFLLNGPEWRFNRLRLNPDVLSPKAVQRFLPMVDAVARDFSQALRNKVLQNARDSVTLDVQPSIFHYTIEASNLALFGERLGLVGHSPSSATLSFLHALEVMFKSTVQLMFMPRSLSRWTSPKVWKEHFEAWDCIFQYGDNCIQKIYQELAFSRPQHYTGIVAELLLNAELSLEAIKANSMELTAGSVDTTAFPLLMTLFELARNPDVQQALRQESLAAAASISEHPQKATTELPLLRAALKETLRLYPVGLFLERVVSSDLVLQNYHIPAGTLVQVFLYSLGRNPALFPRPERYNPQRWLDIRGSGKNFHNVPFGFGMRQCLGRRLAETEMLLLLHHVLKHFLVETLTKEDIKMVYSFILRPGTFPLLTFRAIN
Procedure: The aldosterone synthase and cortisol synthase inhibition assays employ cynomolgus adrenal gland mitochondria as the source of aldosterone synthase (CYP11B2) and cortisol synthase (CYP11B1). […] One unit of CYP11B2 and CYP11B1 activity in these preparations is defined as the amount of enzyme that generates 1 pmol of product in one hour under the conditions described.
The compounds of the invention may be evaluated for aldosterone synthase inhibition by the following assay:
Assays are performed in 96-well format in a final volume of 60 microL/well, containing 100 mM potassium phosphate, pH 7.4, 1% (v/v) DMSO, and additionally, 2 μM of corticosterone and 50 units of CYP11B2 activity. Reactions are started by the addition of NADPH to 1 mM and allowed to proceed for 90 minutes at 37° C. Reactions are terminated by the addition of 60 μL of MeCN containing an internal standard for mass spectrometry. One hundred microliters are then transferred to a glass filter plate and centrifuged at 570×g for 5 minutes and the filtrate is collected. Reaction product aldosterone is quantified by mass spectrometry. To determine the assay blank value (0% activity), NADPH is omitted from some reactions.
(§1) Dose dependent inhibition is quantified by the inclusion of compound at various concentrations. Maximum activity (100%) is defined by reactions containing NADPH, but without compound.

[3] = target: cortisol synthase (CYP11B1) (Macaca fascicularis, UniProt A0A2K5ULY1); assay: Inhibition of cortisol synthesis, cynomolgus adrenal mitochondria, 11-deoxycortisol as substrate; assay type: biochemical, cynomolgus monkey; conditions: 150 units of CYP11B1, 11-deoxycortisol as substrate
Procedure: The aldosterone synthase and cortisol synthase inhibition assays employ cynomolgus adrenal gland mitochondria as the source of aldosterone synthase (CYP11B2) and cortisol synthase (CYP11B1). Mitochondria are prepared from frozen cynomolgus monkey adrenal glands according to Method A described in by J. D. McGarry et al. (Biochem. J., 1983, 214, 21-28), with a final resuspension in the AT buffer described in R. Yamaguchi et al. (Cell Death and Differentiation, 2007, 14, 616-624), frozen as aliquots in liquid nitrogen and stored at −80° C. until use. One unit of CYP11B2 and CYP11B1 activity in these preparations is defined as the amount of enzyme that generates 1 pmol of product in one hour under the conditions described.
Assays are performed as for aldosterone synthase except for the use of 150 units of CYP11B1, 11-deoxycortisol as substrate and cortisol measured as product.

[4] = target: T3, rhCYP17A1 (Homo sapiens, UniProt P05093); assay: Inhibition of CYP17A1, progesterone to 17-α-hydroxyprogesterone, mass spectrometry; assay type: biochemical
T3 construct: purchased Cypex
T3 sequence (P05093 1-508): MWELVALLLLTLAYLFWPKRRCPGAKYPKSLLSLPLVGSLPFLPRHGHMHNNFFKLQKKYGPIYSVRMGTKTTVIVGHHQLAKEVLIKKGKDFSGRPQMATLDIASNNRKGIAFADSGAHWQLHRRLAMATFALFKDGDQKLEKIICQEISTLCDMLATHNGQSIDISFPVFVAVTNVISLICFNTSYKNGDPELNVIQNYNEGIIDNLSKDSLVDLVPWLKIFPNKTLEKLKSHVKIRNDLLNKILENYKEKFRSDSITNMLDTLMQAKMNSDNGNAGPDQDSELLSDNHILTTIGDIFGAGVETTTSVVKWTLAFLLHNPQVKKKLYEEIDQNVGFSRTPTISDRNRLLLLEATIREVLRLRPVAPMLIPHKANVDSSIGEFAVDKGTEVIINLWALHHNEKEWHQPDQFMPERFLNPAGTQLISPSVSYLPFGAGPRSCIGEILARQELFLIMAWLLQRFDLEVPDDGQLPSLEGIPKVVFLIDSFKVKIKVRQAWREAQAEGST
Procedure: Compounds of the invention may also be evaluated for inhibition of CYP17A1 via the following assay:
Reactions are started by the addition of NADPH to 1 mM and allowed to proceed for 15 minutes at 37° C. Reactions are terminated by the addition of 40 μL of MeCN containing an internal standard for mass spectrometry. The plates are centrifuged at 3000 rpm for 5 min and the reaction product 17-α-hydroxyprogesterone is quantified by mass spectrometry. To determine the assay blank value (0% activity), NADPH is omitted from some reactions.
as §1

[5] = cynomolgus adrenal mitochondria, read-out: Cortisol Inhibition IC50
[6] = rhCYP17A1, 150 nM progesterone, 15 minutes at 37° C., read-out: CYP17A1 IC50
[7] = Cortisol Inhibition IC50, cynomolgus adrenal mitochondria

`CC1Cc2ncn(-c3ccc(C#N)cc3)c2C(=O)O1` (single isomer, unassigned) [Compound 16A, 4[6-methyl-4-oxo-3H,4H,6H,7H-pyrano[3,4-d]imidazol-3-yl]benzonitrile] gave an IC50 ([1]; read-out: CYP19A1 IC50) greater than 20 µM, an IC50 [2] of 0.1 µM and an IC50 [3, 5] of 26 µM. For the same compound, the IC50 [4, 6] was greater than 20 µM.

`CC1Cc2ncn(-c3ccc(C#N)cc3)c2C(=O)O1` (single isomer, unassigned) [Compound 16B, 4[6-methyl-4-oxo-3H,4H,6H,7H-pyrano[3,4-d]imidazol-3-yl]benzonitrile] was tested, and the IC50 ([1]; read-out: CYP19A1 IC50) was greater than 20 µM, the IC50 [2] was 0.16 µM and the IC50 [3, 5] was 35 µM. For the same compound, the IC50 [4, 6] was greater than 20 µM.

With `C[C@]1(CO)Cc2ncn(-c3ccc(C#N)c(Cl)c3)c2C(=O)O1` (single isomer, unassigned) [Compound 29A] the IC50 ([1]; read-out: CYP19A1 IC50) was greater than 20 µM, the IC50 [2] was 0.016 µM and the IC50 [3, 7] was 4.7 µM. The IC50 [4, 6] was greater than 20 µM.

In the case of `C[C@@]1(CO)Cc2ncn(-c3ccc(C#N)c(Cl)c3)c2C(=O)O1` (single isomer, unassigned) [Compound 29B], the IC50 ([1]; read-out: CYP19A1 IC50) is reported as greater than 20 µM, the IC50 [2] is reported as 0.048 µM and the IC50 [3, 7] is reported as 23 µM. For the same compound, the IC50 [4, 6] was greater than 20 µM.

With `CC1(CO)Cc2ncn(-c3ccc(Cl)c(Cl)c3)c2C(=O)O1` (single isomer, unassigned) [Compound 30A, 3-(3,4-dichlorophenyl)-6-(hydroxymethyl)-6-methyl-3H,4H,6H,7H-pyrano[3,4-d]imidazol-4-one] the IC50 ([1]; read-out: CYP19A1 IC50) was greater than 20 µM, the IC50 [2] was 0.028 µM and the IC50 [3, 5] was 9 µM. It also gave an IC50 [4, 6] greater than 20 µM.

`CC1(CO)Cc2ncn(-c3ccc(Cl)c(Cl)c3)c2C(=O)O1` (single isomer, unassigned) [Compound 30B, 3-(3,4-dichlorophenyl)-6-(hydroxymethyl)-6-methyl-3H,4H,6H,7H-pyrano[3,4-d]imidazol-4-one] was tested, and the IC50 ([1]; read-out: CYP19A1 IC50) was greater than 20 µM, the IC50 [2] was 0.031 µM and the IC50 [3, 5] was 5.2 µM. It also gave an IC50 [4, 6] greater than 20 µM.

`Cc1cc(C#N)ccc1-n1cnc2c1C(=O)OC(C)(CO)C2` (single isomer, unassigned) [Compound 31A, 4-[6-(hydroxymethyl)-6-methyl-4-oxo-3H,4H,6H,7H-pyrano[3,4-d]imidazol-3-yl]-3-methylbenzonitrile] showed an IC50 ([1]; read-out: CYP19A1 IC50) greater than 20 µM, an IC50 [2] of 0.023 µM and an IC50 [3, 5] of 3.6 µM. For the same compound, the IC50 [4, 6] was greater than 20 µM.

Compound `Cc1cc(C#N)ccc1-n1cnc2c1C(=O)OC(C)(CO)C2` (single isomer, unassigned) [Compound 31B, 4-[6-(hydroxymethyl)-6-methyl-4-oxo-3H,4H,6H,7H-pyrano[3,4-d]imidazol-3-yl]-3-methylbenzonitrile] has an IC50 ([1]; read-out: CYP19A1 IC50) greater than 20 µM, an IC50 [2] of 0.21 µM and an IC50 [3, 5] of 24 µM. The IC50 [4, 6] was greater than 20 µM.

`N#Cc1ccc(-n2cnc3c2C(=O)OC(CO)C3)cc1Cl` (single isomer, unassigned) [Compound 33A, 2-chloro-4-[6-(hydroxymethyl)-4-oxo-3H,4H,6H,7H-pyrano[3,4-d]imidazol-3-yl]benzonitrile] was tested, and the IC50 [1] was greater than 20 µM, the IC50 [2] was 0.089 µM and the IC50 [3, 7] was 45 µM. The IC50 [4] was greater than 20 µM.

Work on `N#Cc1ccc(-n2cnc3c2C(=O)OC(CO)C3)cc1Cl` (single isomer, unassigned) [Compound 33B, 2-chloro-4-[6-(hydroxymethyl)-4-oxo-3H,4H,6H,7H-pyrano[3,4-d]imidazol-3-yl]benzonitrile] yielded an IC50 ([1]; read-out: CYP19A1 IC50) greater than 20 µM, an IC50 [2] of 0.027 µM and an IC50 [3, 7] of 14 µM. For the same compound, the IC50 ([4]; read-out: CYP17A1 IC50, rhCYP17A1, 150 nM progesterone, 15 minutes at 37° C.) was greater than 20 µM.

Compound `CC1(CO)Cc2ncn(-c3cccc(F)c3Cl)c2C(=O)O1` (single isomer, unassigned) [Compound 34B, 3-(2-chloro-3-fluorophenyl)-6-(hydroxymethyl)-6-methyl-3H,4H,6H,7H-pyrano[3,4-d]imidazol-4-one] has an IC50 ([1]; read-out: CYP19A1 IC50) greater than 20 µM, an IC50 [2] of 0.12 µM and an IC50 [3, 5] of 19 µM. For the same compound, the IC50 [4, 6] was greater than 20 µM.

`CC1(CO)Cc2ncn(-c3cccc(Cl)c3F)c2C(=O)O1` (single isomer, unassigned) [Compound 35A, 3-(3-chloro-2-fluorophenyl)-6-(hydroxymethyl)-6-methyl-3H,4H,6H,7H-pyrano[3,4-d]imidazol-4-one] gave an IC50 ([1]; read-out: CYP19A1 IC50) greater than 20 µM, an IC50 [2] of 0.07 µM and an IC50 [3, 5] of 24 µM. It also gave an IC50 [4, 6] of 15 µM.

Work on `Cc1cc(-n2cnc3c2C(=O)OC(C)(CO)C3)ccc1C#N` (single isomer, unassigned) [Compound 39A, 4-[6-(hydroxymethyl)-6-methyl-4-oxo-3H,4H,6H,7H-pyrano[3,4-d]imidazol-3-yl]-2-methylbenzonitrile] yielded an IC50 ([1]; read-out: CYP19A1 IC50) greater than 20 µM, an IC50 [2] of 0.011 µM and an IC50 [3, 7] of 1.4 µM. For the same compound, the IC50 [4, 6] was greater than 20 µM.

With `Cc1cc(-n2cnc3c2C(=O)OC(C)(CO)C3)ccc1C#N` (single isomer, unassigned) [Compound 39B, 4-[6-(hydroxymethyl)-6-methyl-4-oxo-3H,4H,6H,7H-pyrano[3,4-d]imidazol-3-yl]-2-methylbenzonitrile] the IC50 ([1]; read-out: CYP19A1 IC50) was greater than 20 µM, the IC50 [2] was 0.013 µM and the IC50 [3, 7] was 8.6 µM. For the same compound, the IC50 [4, 6] was greater than 20 µM.

`CC1(CO)Cc2ncn(-c3ccc4c(c3)CCO4)c2C(=O)O1` (single isomer, unassigned) [Compound 42B, 3-(2,3-Dihydro-benzofuran-5-yl)-6-hydroxymethyl-6-methyl-6,7-dihydro-3H-pyrano[3,4-d]imidazol-4-one] showed an IC50 ([1]; read-out: CYP19A1 IC50) greater than 20 µM, an IC50 [2] of 0.076 µM and an IC50 [3, 5] greater than 30 µM. It also gave an IC50 [4, 6] greater than 20 µM.

Compound `CN(C)C(=O)C1(C)Cc2ncn(-c3ccc(C#N)c(Cl)c3)c2C(=O)O1` (centres unmarked) [Compound 46, 3-(3-chloro-4-cyano-phenyl)-6-methyl-4-oxo-3,4,6,7-tetrahydro-pyrano[3,4-d]imidazole-6-carboxylic acid dimethylamide] has an IC50 [2] of 0.089 µM and an IC50 [3, 7] of 13 µM.
